Key:
[1] = system: A549; assay: Cytotoxicity against human A549 cells assessed as inhibition of cell growth at 20 uM measured after 72 hrs by MTT assay relative to control; type: functional
[2] = system: A549; assay: Cytotoxicity against human A549 cells assessed as inhibition of cell growth measured after 72 hrs by MTT assay; type: functional, cell-based
[3] = system: MDA-MB-231; assay: Cytotoxicity against human MDA-MB-231 cells assessed as inhibition of cell growth at 20 uM measured after 72 hrs by MTT assay relative to control; type: functional
[4] = system: HCT-116; assay: Cytotoxicity against human HCT-116 cells assessed as inhibition of cell growth at 20 uM measured after 72 hrs by MTT assay relative to control; type: functional
[5] = system: MAP3K7/TAB1 [+]; assay: Inhibition of Tak1/Tab1 (unknown origin) assessed as inhibition of Tak1 kinase activity preincubated for 30 mins followed by addition of MBP protein and ATP and measured after 2 hrs by ADP-Glo kinase assay
[6] = target: TAK1-TAB1 fusion protein (Homo sapiens, UniProt O43318); assay: Inhibition of Tak1/Tab1 (unknown origin) assessed as inhibition of Tak1 kinase activity preincubated for 30 mins followed by addition of MBP protein and ATP and measured after 2 hrs by ADP-Glo kinase assay
Chain of TAK1-TAB1 fusion protein (O43318 whole entry, looked up, the tested form may be a part): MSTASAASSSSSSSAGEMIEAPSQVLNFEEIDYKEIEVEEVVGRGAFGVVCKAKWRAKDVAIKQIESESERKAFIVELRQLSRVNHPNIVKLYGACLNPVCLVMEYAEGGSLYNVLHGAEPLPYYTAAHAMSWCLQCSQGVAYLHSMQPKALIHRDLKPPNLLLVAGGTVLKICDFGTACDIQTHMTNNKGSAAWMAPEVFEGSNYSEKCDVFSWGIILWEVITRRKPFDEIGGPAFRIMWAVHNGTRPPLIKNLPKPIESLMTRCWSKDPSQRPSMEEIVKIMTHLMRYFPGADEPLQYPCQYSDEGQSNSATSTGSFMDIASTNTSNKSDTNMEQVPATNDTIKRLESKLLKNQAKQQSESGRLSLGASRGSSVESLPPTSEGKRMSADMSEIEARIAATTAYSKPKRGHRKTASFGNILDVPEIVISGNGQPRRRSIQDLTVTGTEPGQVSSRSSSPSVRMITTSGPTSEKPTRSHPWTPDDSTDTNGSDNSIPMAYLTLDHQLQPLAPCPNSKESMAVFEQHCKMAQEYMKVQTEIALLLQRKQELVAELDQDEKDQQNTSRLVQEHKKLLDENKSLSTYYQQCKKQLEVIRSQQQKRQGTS

[7] = system: HCT-116; assay: Cytotoxicity against human HCT-116 cells assessed as inhibition of cell growth measured after 72 hrs by MTT assay; type: functional, cell-based; details: HCT-116, 72 h
[8] = Homo sapiens, A549, 72 h, read-out: IC50

| SMILES | inhibition at 20 µM [1] [%] | IC50 [2, 8] [µM] | inhibition at 20 µM [3] [%] | inhibition at 20 µM [4] [%] | IC50 [5] | IC50 [6] [µM] | IC50 ([2]; a549) | IC50 [7] [µM] |
| --- | --- | --- | --- | --- | --- | --- | --- | --- |
| CN(c1ccc(Oc2ncnc3ccsc23)cc1)c1nccc(N2CCCC2)n1 | 63.9 | 6.51 | 38 | 63.5 | Not Active | – | – | – |
| c1ccc2c(c1)CCN(c1ccnc(Nc3ccc(Oc4ncnc5sccc45)cc3)n1)C2 | 34 | 6.75 | 26.8 | 18.1 | – | 6.87 | – | – |
| c1cc(N2CCOCC2)nc(Nc2ccc(Oc3ncnc4sccc34)cc2)n1 | 36.7 | 9.31 | 14.5 | 37.5 | – | – | – | – |
| CCN(CC)c1ccc(C(=O)Nc2ccc(Oc3ncnc4ccsc34)cc2)cc1 | 63.8 | 8.03 | 38.3 | 37.9 | – | – | – | – |
| c1cc(N2CCCC2)nc(Nc2ccc(Oc3ncnc4ccsc34)cc2)n1 | 23.2 | – | 14.3 | 22.2 | – | – | Not Active | – |
| c1ccc2c(c1)CCN2c1ccnc(Nc2ccc(Oc3ncnc4sccc34)cc2)n1 | 2.81 | – | 9.95 | -0.62 | – | – | Not Active | – |
| c1cc(N2CCCCC2)nc(Nc2ccc(Oc3ncnc4sccc34)cc2)n1 | 64.8 | 4.02 | 40.4 | 66.3 | – | 2.52 | – | – |
| c1ccc2c(c1)CCN(c1ccnc(Nc3ccc(Oc4ncnc5ccsc45)cc3)n1)C2 | 54.9 | 17 | 15.4 | 40.9 | – | – | – | – |
| CN(c1ccc(Oc2ncnc3sccc23)cc1)c1nccc(N2CCCCC2)n1 | 51.9 | 8.79 | 29.3 | 52.1 | – | – | – | – |
| CNC(=O)c1cc(Oc2ccc(Nc3nccc(N4CCCC4)n3)cc2)ccn1 | 59.6 | 3.41 | 46.6 | 66.4 | – | 1.36 | – | 1.41 |
| c1cc(N2CCCCC2)nc(Nc2ccc(Oc3ncnc4ccsc34)cc2)n1 | 59.9 | 7.8 | 45.7 | 61.5 | – | – | – | – |
| c1cc(N2CCCC2)nc(Nc2ccc(Oc3ncnc4sccc34)cc2)n1 | 61 | 8.1 | 24.7 | 54.4 | – | – | – | – |
| c1ccc(CNc2ccc(Oc3ncnc4ccsc34)cc2)cc1 | 30.6 | – | 3.72 | -12.2 | – | – | Not Active | – |
| CN(c1ccc(Oc2ncnc3ccsc23)cc1)c1nccc(N2CCc3ccccc32)n1 | 58.2 | 20.5 | 38.2 | 57.8 | – | – | – | – |
| CN(C)c1ccc(C(=O)Nc2ccc(Oc3ncnc4ccsc34)cc2)cc1 | 50.8 | 20.2 | 10.4 | 53.9 | – | – | – | – |
| CNC(=O)c1cc(Oc2ccc(Nc3nccc(N4CCOCC4)n3)cc2)ccn1 | 66.3 | 7.34 | 34.1 | 48.3 | – | – | – | 12.8 |
| c1cc(N2CCOCC2)nc(Nc2ccc(Oc3ncnc4ccsc34)cc2)n1 | 57.9 | 6.86 | 23 | 53.1 | – | 15.7 | – | – |
| CN(c1ccc(Oc2ncnc3ccsc23)cc1)c1nccc(N2CCc3ccccc3C2)n1 | 69.9 | 16.1 | 30.2 | 58.3 | – | – | – | – |
| CN(c1ccc(Oc2ncnc3sccc23)cc1)c1nccc(N2CCc3ccccc3C2)n1 | 68.4 | 6.39 | 24.3 | 57.7 | – | 12 | – | – |
| CNC(=O)c1cc(Oc2ccc(Nc3nccc(N4CCc5ccccc5C4)n3)cc2)ccn1 | 59.6 | 3.19 | 41.2 | 31.2 | – | 1.26 | – | 15.8 |
| CN(c1ccc(Oc2ncnc3ccsc23)cc1)c1nccc(N2CCCCC2)n1 | 65.7 | 8.24 | 49.7 | 66.2 | – | – | – | – |
| CN(c1ccc(Oc2ncnc3sccc23)cc1)c1nccc(N2CCCC2)n1 | 55.5 | 15.1 | 31 | 42.2 | – | – | – | – |
| CN(c1ccc(Oc2ncnc3sccc23)cc1)c1nccc(N2CCc3ccccc32)n1 | 29.4 | 19.6 | 17.6 | 20 | – | – | – | – |
